Source: ChEMBL document CHEMBL1201862, “PubChem BioAssay data set” (2004)
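Assay format: 96-well plates, 48-hour exposure. At the GI50, growth is halved.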 Active and inactive are the calls of the source. Cut-off read from the data, not from the text of the source: active = GI50 up to about 1.1 µM and inactive = higher.

Key:
Assay in all cases: inhibition of tumour cell growth, NCI panel, 48 h
HOP-92 = system: HOP-92
SR = system: SR
OVCAR-5 = system: OVCAR-5
IGROV-1 = system: IGROV-1
UACC-257 = system: UACC-257
HCT-116 = system: HCT-116
UO-31 = system: UO-31
RPMI-8226 = system: RPMI-8226
M14 = system: M14
SF-295 = system: SF-295
HOP-62 = system: HOP-62
EKVX = system: EKVX
SN12C = system: SN12C
MDA-MB-435 = system: MDA-MB-435
SK-MEL-2 = system: SK-MEL-2
786-0 = system: 786-0
OVCAR-8 = system: OVCAR-8
A498 = system: A498
CAKI-1 = system: CAKI-1
NCI-H226 = system: NCI-H226

Row | SMILES | GI50 (HOP-92) | GI50 (SR) | GI50 (OVCAR-5) | GI50 (IGROV-1) | GI50 (UACC-257) | GI50 (HCT-116) | GI50 (UO-31) | GI50 (RPMI-8226) | GI50 (M14) | GI50 (SF-295) | GI50 (HOP-62) | GI50 (EKVX) | GI50 (SN12C) | GI50 (MDA-MB-435) | GI50 (SK-MEL-2) | GI50 (786-0) | GI50 (OVCAR-8) | GI50 (A498) | GI50 (CAKI-1) | GI50 (NCI-H226)
1 | CCCNc1ncnc2[nH]ncc12 | 87.5 µM (inactive) | > 100 µM (inactive) | > 100 µM (inactive) | > 100 µM (inactive) | > 100 µM (inactive) | > 100 µM (inactive) | > 100 µM (inactive) | > 100 µM (inactive) | > 100 µM (inactive) | > 100 µM (inactive) | > 100 µM (inactive) | > 100 µM (inactive) | > 100 µM (inactive) | > 100 µM (inactive) | > 100 µM (inactive) | > 100 µM (inactive) | > 100 µM (inactive) | > 100 µM (inactive) | > 100 µM (inactive) | –
2 | CN(C(=O)Cc1ccccc1)n1cn[n+](CC(=O)OC(C)(C)C)c1 | > 10 µM (inactive) | > 10 µM (inactive) | > 10 µM (inactive) | > 10 µM (inactive) | > 10 µM (inactive) | > 10 µM (inactive) | > 10 µM (inactive) | 0.00119 µM (active) | > 10 µM (inactive) | > 10 µM (inactive) | > 10 µM (inactive) | > 10 µM (inactive) | > 10 µM (inactive) | > 10 µM (inactive) | – | > 10 µM (inactive) | > 10 µM (inactive) | > 10 µM (inactive) | > 10 µM (inactive) | > 10 µM (inactive)
3 | CCCNC(=S)N/N=C/c1cccc(C)n1 | 49 µM (inactive) | 15 µM (inactive) | 44.5 µM (inactive) | 42.7 µM (inactive) | 33 µM (inactive) | 7.18 µM (inactive) | 17.2 µM (inactive) | 24.3 µM (inactive) | 12.3 µM (inactive) | 32.8 µM (inactive) | 25.6 µM (inactive) | 30.9 µM (inactive) | 29.2 µM (inactive) | 36.8 µM (inactive) | 1.09 µM (active) | 26 µM (inactive) | 28 µM (inactive) | 33 µM (inactive) | – | 19.8 µM (inactive)
4 | CC(=O)c1[nH]c(Nc2ccc(C)cc2)c(C(=S)Nc2ccccc2)c1N | 13 µM (inactive) | 22.3 µM (inactive) | 32.9 µM (inactive) | 16.8 µM (inactive) | 18.5 µM (inactive) | 16.7 µM (inactive) | 13.2 µM (inactive) | – | 17.1 µM (inactive) | 17.8 µM (inactive) | 20.8 µM (inactive) | 24.3 µM (inactive) | 18.8 µM (inactive) | 15 µM (inactive) | 15.5 µM (inactive) | 17.7 µM (inactive) | 18.1 µM (inactive) | 13.8 µM (inactive) | 16.9 µM (inactive) | 14.4 µM (inactive)
5 | CC/C=C/C[C@H](O)[C@H]1C[C@H]2O[C@H](CC(=O)OC)C[C@H]2O1 | – | > 100 µM (inactive) | > 100 µM (inactive) | > 100 µM (inactive) | – | > 100 µM (inactive) | > 100 µM (inactive) | > 100 µM (inactive) | > 100 µM (inactive) | > 100 µM (inactive) | > 100 µM (inactive) | > 100 µM (inactive) | > 100 µM (inactive) | > 100 µM (inactive) | > 100 µM (inactive) | > 100 µM (inactive) | > 100 µM (inactive) | > 100 µM (inactive) | > 100 µM (inactive) | > 100 µM (inactive)
6 | CC(=O)OCCn1cnc2nc(Nc3ccccc3)nc(Cl)c21 | 13.6 µM (inactive) | 54.8 µM (inactive) | > 100 µM (inactive) | > 100 µM (inactive) | 76.9 µM (inactive) | 71.1 µM (inactive) | – | 89.5 µM (inactive) | – | 82 µM (inactive) | > 100 µM (inactive) | > 100 µM (inactive) | > 100 µM (inactive) | 25.1 µM (inactive) | – | > 100 µM (inactive) | > 100 µM (inactive) | > 100 µM (inactive) | – | > 100 µM (inactive)
7 | Cc1ccc(C)c2c1NC(=O)/C2=N\Nc1ccccc1[N+](=O)[O-] | 40.7 µM (inactive) | 1.61 µM (inactive) | > 100 µM (inactive) | 10.7 µM (inactive) | > 100 µM (inactive) | > 100 µM (inactive) | > 100 µM (inactive) | > 100 µM (inactive) | > 100 µM (inactive) | > 100 µM (inactive) | 55.8 µM (inactive) | > 100 µM (inactive) | > 100 µM (inactive) | > 100 µM (inactive) | 78 µM (inactive) | 61.5 µM (inactive) | – | > 100 µM (inactive) | > 100 µM (inactive) | –
8 | CC(C)(C)c1cc(/C=C2/NC(=O)NC2=O)cc(C(C)(C)C)c1O | 14.2 µM (inactive) | 12.8 µM (inactive) | 15.9 µM (inactive) | 16 µM (inactive) | 16 µM (inactive) | 14.1 µM (inactive) | – | 11.4 µM (inactive) | – | 14.8 µM (inactive) | 17.1 µM (inactive) | 10.9 µM (inactive) | 15.2 µM (inactive) | 17.3 µM (inactive) | 13.8 µM (inactive) | 15.6 µM (inactive) | 16.3 µM (inactive) | 14 µM (inactive) | 16.8 µM (inactive) | 14.8 µM (inactive)
9 | O=C1Nc2c(Cl)cc(Cl)cc2/C1=N/NC(=O)c1ccccc1O | 15 µM (inactive) | 5.4 µM (inactive) | 18.3 µM (inactive) | 12.3 µM (inactive) | 17.9 µM (inactive) | 13.6 µM (inactive) | 11.9 µM (inactive) | – | 16.1 µM (inactive) | 14.9 µM (inactive) | 15.4 µM (inactive) | 13.2 µM (inactive) | 16.7 µM (inactive) | 13.2 µM (inactive) | 12.7 µM (inactive) | 12.8 µM (inactive) | 12.3 µM (inactive) | 16.5 µM (inactive) | 16.8 µM (inactive) | 14.8 µM (inactive)
10 | c1ccc2c(c1)OC(N1CCCC1)c1cnc(N3CCOCC3)nc1-2 (stereo unspecified) | 16.8 µM (inactive) | 38.5 µM (inactive) | 22.5 µM (inactive) | – | 25.2 µM (inactive) | > 100 µM (inactive) | 19.3 µM (inactive) | 25.7 µM (inactive) | 57.8 µM (inactive) | 30.4 µM (inactive) | 57.5 µM (inactive) | 21.6 µM (inactive) | 32 µM (inactive) | 67 µM (inactive) | – | 59.8 µM (inactive) | > 100 µM (inactive) | 18.7 µM (inactive) | 27.8 µM (inactive) | 30.6 µM (inactive)
11 | NCc1ccc(C(=O)O)cc1 [AMINOMETHYLBENZOIC ACID] | > 100 µM (inactive) | > 100 µM (inactive) | > 100 µM (inactive) | > 100 µM (inactive) | > 100 µM (inactive) | > 100 µM (inactive) | > 100 µM (inactive) | – | > 100 µM (inactive) | > 100 µM (inactive) | > 100 µM (inactive) | > 100 µM (inactive) | > 100 µM (inactive) | > 100 µM (inactive) | – | > 100 µM (inactive) | > 100 µM (inactive) | > 100 µM (inactive) | > 100 µM (inactive) | > 100 µM (inactive)
